Test results from patent US20250353912A1, “COMPOSITIONS AND METHODS COMPRISING ANTIBODIES THAT BIND TO COVALENT PEPTIDE CONJUGATES” (New York University, priority 2022, published 2025).

Assays:
H358 cells = experiment: Cell viability following exposure to sotorasib for 72 hr; format: cell-based; conditions: 0.1 μM sotorasib, FIG. 43A
H2122 cells = experiment: as above; format: cell-based; conditions: FIG. 43A
[1] = cited from earlier work
[2] = second line disease, versus docetaxel

C=CC(=O)N1CCN(c2nc(=O)n(-c3c(C)ccnc3C(C)C)c3nc(-c4c(O)cccc4F)c(F)cc23)[C@@H](C)C1 [sotorasib]
killing of H358 cells (H358 cells): nearly all of the H358 cells were killed | sotorasib concentration up to which H2122 is resistant (H2122 cells): ~10 µM | patients removed from the study because of liver toxicity ([1]; in vivo): six patients | patients with drug-induced liver injury ([1]; in vivo): two patients | patients with grade 3/4 liver toxicity ([1]; in vivo): 10% | overall survival [1, 2]: no impact | progression-free survival [1, 2]: improved by one month
